Each compound was assayed against human V1a receptor (Homo sapiens (Human), UniProt P37288) (assay: human V1a receptor binding studies (3H-Vasopressin, SPA beads)). Conditions: membranes of HEK293 cells transiently transfected with human V1a receptor, Ki by Cheng-Prussoff.
Description: The human V1a receptor was cloned by RT-PCR from total human liver RNA. The coding sequence was subcloned in an expression vector after sequencing to confirm the identity of the amplified sequence. […] Cell membranes were prepared from HEK293 cells transiently transfected with the expression vector and grown in 20 liter fermenters with the following protocol.
50 g of cells are re-suspended in 30 ml freshly prepared ice cold Lysis buffer (50 mM HEPES, 1 mM EDTA, 10 mM MgCl2 adjusted to pH=7.4+complete cocktail of protease inhibitor (Roche Diagnostics)). Homogenized with Polytron for 1 min and sonicated on ice for 2×2 minutes at 80% intensity (Vibracell sonicator). The preparation is centrifuged 20 min at 500 g at 4° C., the pellet is discarded and the supernatant centrifuged 1 hour at 43,000 g at 4° C. (19,000 rpm). The pellet is re-suspended in 12.5 ml Lysis buffer+12.5 ml Sucrose 20% and homogenized using a Polytron for 1-2 min. The protein concentration is determined by the Bradford method and aliquots are stored at −80° C. until use. For binding studies 60 mg Yttrium silicate SPA beads (Amersham) are mixed with an aliquot of membrane in binding buffer (50 mM Tris, 120 mM NaCl, 5 mM KCl, 2 mM CaCl2, 10 mM MgCl2) for 15 minutes with mixing. 50 μl of bead/membrane mixture is then added to each well of a 96 well plate, followed by 50 μl of 4 nM 3H-Vasopressin (American Radiolabeled Chemicals). For total binding measurement 100 μl of binding buffer are added to the respective wells, for non-specific binding 100 μl of 8.4 mM cold vasopressin and for compound testing 100 μl of a serial dilution of each compound in 2% DMSO. The plate is incubated 1 h at room temperature, centrifuged 1 min at 1000 g and counted on a Packard Top-Count. Non-specific binding counts are subtracted from each well and data is normalized to the maximum specific binding set at 100%. To calculate an IC 50 the curve is fitted using a non-linear regression model (XLfit) and the Ki is calculated using the Cheng-Prussoff equation.

Chain of human V1a receptor (P37288 whole entry): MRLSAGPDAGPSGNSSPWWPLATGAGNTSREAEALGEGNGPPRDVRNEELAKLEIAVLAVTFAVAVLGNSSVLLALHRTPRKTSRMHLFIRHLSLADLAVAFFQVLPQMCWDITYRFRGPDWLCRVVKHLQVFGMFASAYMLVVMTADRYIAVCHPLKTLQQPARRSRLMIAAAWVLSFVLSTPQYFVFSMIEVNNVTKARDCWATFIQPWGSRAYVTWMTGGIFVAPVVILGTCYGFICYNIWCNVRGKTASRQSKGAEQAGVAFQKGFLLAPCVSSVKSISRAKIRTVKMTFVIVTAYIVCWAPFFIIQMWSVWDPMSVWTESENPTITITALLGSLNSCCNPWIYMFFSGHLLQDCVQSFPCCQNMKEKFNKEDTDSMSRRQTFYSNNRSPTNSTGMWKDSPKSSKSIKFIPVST

Structure (SMILES) | pKi hV1a
COC/C(=C1/SC(N2CCC3(CC2)OCc2ccccc23)=NC1=O)c1ccccc1 [Example 92, (5E)-5-(2-methoxy-1-phenylethylidene)-2-(1′H,3H-spiro[2-benzofuran-1,4′-piperidin]-1′-yl)-1,3-thiazol-4(5H)-one] | 9.0
C/C(=C1/SC(N2CCC3(CC2)OCc2ccccc23)=NC1=O)c1ccc(Cl)cc1 [Example 1, (5E/Z)-5-[1-(4-chlorophenyl)ethylidene]-2-(1′H,3H-spiro[2-benzofuran-1,4′-piperidin]-1′-yl)-1,3-thiazol-4(5H)-one] | 8.9
[2H]C([2H])([2H])/C(=C1/SC(N2CCC3(CC2)OCc2ccccc23)=NC1=O)c1ccc(Cl)nc1 [Example 171, (5Z)-5-[1-(6-chloropyridin-3-yl)(^2H3)ethylidene]-2-(1′H,3H-spiro[2-benzofuran-1,4′-piperidin]-1′-yl)-1,3-thiazol-4(5H)-one] | 9.3
O=C1N=C(N2CCC3(CC2)OCc2ccccc23)S/C1=C1/CCCc2c(Cl)cccc21 [Example 19, (5E/Z)-5-(5-chloro-3,4-dihydronaphthalen-1(2H)-ylidene)-2-(1′H,3H-spiro[2-benzofuran-1,4′-piperidin]-1′-yl)-1,3-thiazol-4(5H)-one] | 7.7
C/C(=C1\SC(N2CCC3(CC2)OC(=O)c2ccccc23)=NC1=O)c1ccc(C)nc1 [Example 136, 1′-{(5E)-5-[1-(6-methylpyridin-3-yl)ethylidene]-4-oxo-4,5-dihydro-1,3-thiazol-2-yl}-3H-spiro[2-benzofuran-1,4′-piperidin]-3-one] | 7.5
O=C1N=C(N2CCC3(CC2)OCc2ccccc23)S/C1=C\c1ccc(Cl)cc1 [Example 8, (5Z)-5-(4-chlorobenzylidene)-2-(1′H,3H-spiro[2-benzofuran-1,4′-piperidin]-1′-yl)-1,3-thiazol-4(5H)-one] | 7.8
C/C(=C1\SC(N2CCC3(CC2)OC(=O)c2ccccc23)=NC1=O)c1ccccc1 [Example 157, 1′-[(5E)-4-oxo-5-(1-phenylethylidene)-4,5-dihydro-1,3-thiazol-2-yl]-3H-spiro[2-benzofuran-1,4′-piperidin]-3-one] | 7.8
O=C1N=C(N2CCC3(CC2)OCc2ccccc23)S/C1=C\c1ccccc1 [Example 9, (5Z)-5-benzylidene-2-(1′H,3H-spiro[2-benzofuran-1,4′-piperidin]-1′-yl)-1,3-thiazol-4(5H)-one] | 8.4
C/C(=C1/SC(N2CCC3(CC2)OCc2ccccc23)=NC1=O)c1ccccn1 [Example 38, (5Z)-5-[1-(pyridin-2-yl)ethylidene]-2-(1′H,3H-spiro[2-benzofuran-1,4′-piperidin]-1′-yl)-1,3-thiazol-4(5H)-one] | 8.8

Other lines, results leading:

pKi hV1a | Structure (SMILES)
7.6 | CC(C)(C)OC(=O)N1CCC(=C2SC(N3CCC4(CC3)OCc3ccccc34)=NC2=O)CC1 [Example 41, tert-butyl 4-[4-oxo-2-(1′H,3H-spiro[2-benzofuran-1,4′-piperidin]-1′-yl)-1,3-thiazol-5(4H)-ylidene]piperidine-1-carboxylate]
8.3 | C/C(=C1/SC(N2CCC3(CC2)OCc2ccccc23)=NC1=O)c1cnn(C)c1 [Example 62, (5Z)-5-[1-(1-methyl-1H-pyrazol-4-yl)ethylidene]-2-(1′H,3H-spiro[2-benzofuran-1,4′-piperidin]-1′-yl)-1,3-thiazol-4(5H)-one]
8.3 | O=C1N=C(N2CCC3(CC2)OCc2ccccc23)S/C1=C1/CCc2ccccc21 [Example 46, (5Z)-5-(2,3-dihydro-1H-inden-1-ylidene)-2-(1′H,3H-spiro[2-benzofuran-1,4′-piperidin]-1′-yl)-1,3-thiazol-4(5H)-one]
8.8 | CC(C)C(=C1SC(N2CCC3(CC2)OCc2ccccc23)=NC1=O)C(C)C [Example 120, 5-(2,4-dimethylpentan-3-ylidene)-2-(1′H,3H-spiro[2-benzofuran-1,4′-piperidin]-1′-yl)-1,3-thiazol-4(5H)-one]

Reference: patent publication US10092551B2, “Spiro-thiazolones” (Hoffmann-La Roche Inc., priority 2014, dated 2018)
